The test addresses Human serum albumin (HSA) (Homo sapiens, UniProt P02768). Description: UV-Vis absorption titration at […] nm. Type of test: binding.

Consider one compound from article PMC7292872 (Saudi Pharmaceutical Journal : SPJ, 2020).

Sequence of Human serum albumin (HSA) (P02768 25-609): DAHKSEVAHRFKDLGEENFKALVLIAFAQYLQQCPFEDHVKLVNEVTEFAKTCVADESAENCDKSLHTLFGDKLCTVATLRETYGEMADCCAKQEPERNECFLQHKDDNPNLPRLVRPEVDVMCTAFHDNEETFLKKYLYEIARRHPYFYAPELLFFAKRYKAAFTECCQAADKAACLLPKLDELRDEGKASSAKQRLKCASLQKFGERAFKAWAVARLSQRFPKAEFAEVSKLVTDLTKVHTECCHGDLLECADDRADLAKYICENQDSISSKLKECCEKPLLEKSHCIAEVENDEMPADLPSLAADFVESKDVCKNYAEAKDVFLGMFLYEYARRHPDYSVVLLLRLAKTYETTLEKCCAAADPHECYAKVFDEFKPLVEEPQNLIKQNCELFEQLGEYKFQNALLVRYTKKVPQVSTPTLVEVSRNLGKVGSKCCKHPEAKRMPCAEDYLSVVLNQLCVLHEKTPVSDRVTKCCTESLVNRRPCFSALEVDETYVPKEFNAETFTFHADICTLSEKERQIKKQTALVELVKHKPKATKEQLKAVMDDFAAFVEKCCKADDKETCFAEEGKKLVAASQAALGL

The Kd is the concentration at which binding is half-saturated. A high value points to a looser complex. Compound `CCCc1nc2c(C)cc(-c3nc4ccccc4n3C)cc2n1Cc1ccc(-c2ccccc2C(=O)O)cc1` [TLM] gave a Kd of 990 µM.
